This note sets out measurements from ChEMBL document CHEMBL6177940, “Therapeutic upregulation of DNA repair pathways: strategies and small molecule activators” (RSC Med Chem, 2024).

Experiment [1] is described as follows: Upregulation of BRCA2 expression in mouse Bone marrow cells at 5 uM. It counts as functional, Bone marrow cell.
A short description of experiment [2]: Upregulation of BRCA1 expression in mouse Bone marrow cells at 5 uM. It counts as functional, Bone marrow cell.
A short description of experiment [3]: Activation of Flag/His-tagged human recombinant OGG1 (1 to 345 residues) by fluorescence based analysis.
Experiment [4] concerns HCC1806. Nature of the experiment: Antiproliferative activity against human HCC1806 cells assessed as reduction in cell viability incubated for 72 hrs by MTT assay. The conditions noted are these: HCC1806, 72 h. It is filed as functional, cell-based. In general terms: Tetrazolium dyes change colour on reduction, which living cells bring about.
Experiment [5] can be described thus: Activation of MTH1 (unknown origin). The arrangement: species or system Homo sapiens.
The nature of experiment [6]: Upregulation of OGG1 level in human A549 cells at 30 uM measured for 48 hrs relative to control. It counts as functional.
A short description of experiment [7]: Induction of DNA repair activity in human SUM149PT cells harboring BRCA1 mutant co-expressing GFP reporter gene at 100 uM relative to control. It counts as functional. (Reporter assays use an easily measured gene product as a stand-in for the process of interest.)
Experiment [8] has as its system HCC1937. Nature of the experiment: Antitumor activity against human HCC1937 cells harboring BRAC1 mutant xenografted in NOD/SCID mouse assessed as increase in survival rate at 250 mg/kg, ip measured after 60 days relative to control. The conditions noted are these: time 60 day. It counts as functional. Background: A xenograft is tissue or cells of one species grown in another, often human tumour cells in immunodeficient mice.

The nature of experiment [9]: Activation of rat liver AMPK.
Experiment [10] is filed under the species Mus musculus. Nature of the experiment: Reversal of oxidative stress-induced DNA damage in mouse model assessed as increase in expression of XRCC1 by measuring fold change.
Experiment [11] is filed under the species Mus musculus. Nature of the experiment: Reversal of oxidative stress-induced DNA damage in mouse model assessed as increase in expression of OGG1 by measuring fold change.
For experiment [12], the species on record is Mus musculus. The experiment in a line: Reversal of oxidative stress-induced DNA damage in mouse model assessed as increase in expression of APE1 by measuring fold change.
Experiment [13] addresses T1, NAD-dependent protein deacetylase sirtuin-1 (Homo sapiens) (UniProt Q96EB6).
T1 sequence (whole entry): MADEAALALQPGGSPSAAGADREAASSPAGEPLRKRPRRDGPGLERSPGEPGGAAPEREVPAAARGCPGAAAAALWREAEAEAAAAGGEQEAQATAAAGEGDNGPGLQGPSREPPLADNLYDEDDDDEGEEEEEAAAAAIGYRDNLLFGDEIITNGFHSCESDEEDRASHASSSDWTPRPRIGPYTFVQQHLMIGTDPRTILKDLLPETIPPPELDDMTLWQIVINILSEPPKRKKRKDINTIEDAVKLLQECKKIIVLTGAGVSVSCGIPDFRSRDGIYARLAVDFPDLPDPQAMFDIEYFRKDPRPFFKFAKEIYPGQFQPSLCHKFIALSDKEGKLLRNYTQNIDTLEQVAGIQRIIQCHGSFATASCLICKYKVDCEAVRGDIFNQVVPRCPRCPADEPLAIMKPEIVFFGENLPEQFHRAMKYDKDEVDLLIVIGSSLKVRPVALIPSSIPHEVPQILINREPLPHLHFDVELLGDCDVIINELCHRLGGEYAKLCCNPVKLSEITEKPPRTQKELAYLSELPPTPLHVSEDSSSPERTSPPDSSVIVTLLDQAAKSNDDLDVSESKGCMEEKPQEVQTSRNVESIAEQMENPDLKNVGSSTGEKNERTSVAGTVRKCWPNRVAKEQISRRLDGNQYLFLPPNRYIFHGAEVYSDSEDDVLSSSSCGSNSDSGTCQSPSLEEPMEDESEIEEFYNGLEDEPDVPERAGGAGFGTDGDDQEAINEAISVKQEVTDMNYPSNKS
The experiment in a line: Activation of N-terminal Hex/Histidine-tagged human SIRT1 extracted from Escherichia coli BL21 (DE3) by Fluorescence polarization assay. Conditions: filed as activator.

The nature of experiment [14]: Upregulation of OGG1 expression in mouse MCT cells assessed as fold increase at 2 mM.
Experiment [15] in a line: Induction of DNA repair activity in human SUM149PT cells harboring BRCA1 mutant co-expressing GFP reporter gene at 1 uM relative to control. It is filed as functional.

By EC50 is commonly meant the midpoint of the concentration-response curve. A word on the IC50: it is the concentration that gives 50% inhibition.

Consider `COc1cc(/C=C/C(=O)CC(=O)/C=C/c2ccc(O)c(OC)c2)ccc1O` [CURCUMIN], for which the Activity in experiment [1] and in experiment [2] was 170% each time.

Take `Cc1cnc(N2CCN3CCCC3C2)nc1Oc1ccc(-n2ccnc2)cc1` (stereo not given): the EC50 in experiment [3] is 4.6 µM.

Consider `O=C(Nc1ccc(CN2CCOCC2)c(C(F)(F)F)c1)c1ccc(C#Cc2cccc3cnccc23)cn1`, for which, in experiment [4], the IC50 came out at 10 µM. Further, the midpoint of the response in experiment [5], the EC50, lay at 5.5 µM.

Regarding `OC(Cn1ccnc1)(c1ccc(Cl)cc1Cl)C1CCCCC1` (stereo not given), the Activity in experiment [6] is 142.3%. Besides, the EC50 in experiment [3] was found to be 5 µM.

Turning to `NC(CO)C(=O)NNCc1ccc(O)c(O)c1O` (stereo not given) [BENSERAZIDE], the Activity in experiment [7] is on record as 60%; in experiment [8], “<=70%”.

Turning to `N#Cc1c(O)c2c(-c3ccc(-c4ccccc4O)cc3)csc2[nH]c1=O`, in experiment [9], the EC50 was 0.116 µM.

On to `O=c1c(O)c(-c2ccc(O)c(O)c2)oc2cc(O)cc(O)c12` [QUERCETIN], for which the “fold change (FC)” value in [10], in [11] and in experiment [12] was 2 throughout.

`COc1cc(C(=O)Nc2ccccc2-c2cn3c(CN4CCNCC4)csc3n2)cc(OC)c1OC` gave an EC1.5 in [13] of 2.9 µM.

Regarding `NC(=O)c1ncn([C@H]2O[C@@H](COP(=O)(O)O)[C@H](O)[C@@H]2O)c1N`, in experiment [14], the “fold change (FC)” value came out at 5.

On to `CC(=O)c1ccc(S(=O)(=O)NC(=O)NC2CCCCC2)cc1` [ACETOHEXAMIDE], for which the Activity in experiment [15] is 90%.

As for `CNc1nnc(C)c2c1cc(-c1ccc(F)cc1)n2C`, the EC50 in experiment [3] is 5.1 µM.

For the compound `Cc1cc(N[C@@H](C)C(=O)Nc2ccccc2)nc(Nc2ccccc2)n1`, the EC50 in [3] came out at 4.1 µM.

As to `Nc1ncnc2c1ncn2[C@H]1O[C@@H](COP(=O)(O)O)[C@H](O)[C@@H]1O`, a half-maximal effect in experiment [9] (EC50) was put at 6 µM.

On to `Cc1nc(-c2cccnc2)sc1C(=O)Nc1ccccc1-c1cn2c(CN3CCOCC3)csc2n1`, for which the EC1.5 in [13] amounted to 0.43 µM.
